Results as given in patent publication US8884017B2, “2-heteroarylcarboxylic acid amides” (Bayer Intellectual Property GmbH, priority 2001, dated 2014).
Counter-ions that a name gives are not always drawn.

Molecular target: α7-nAChR (Rattus norvegicus (Rat), UniProt Q05941)
Test: Affinity for α7-nAChR by inhibition of [3H]-methyllycaconitine binding to rat brain membranes
Conditions: rat brain membranes (P2 fraction), Ki=IC50/(1+L/KD)
Description: 1. Determination of the Affinity of Test Substances for α7-nAChR by Inhibition of [^3H]-methyllycaconitine Binding to Rat Brain Membranes
The [^3H]-methyllycaconitine binding assay is a modification of the method described by Davies et al. in Neuropharmacol.
Rat brain tissue (hippocampus or whole brain) is homogenized in homogenization buffer (10% w/v, 0.32 M sucrose, 1 mM EDTA, 0.1 mM phenylmethylsulfonyl fluoride (PMSF), 0.01% (w/v) NaN3, pH 7.4, 4° C.) at 600 rpm in a glass homogenizer. The homogenate is centrifuged (1000×g, 4° C., 10 min) and the supernatant is removed. The pellet is resuspended (20% w/v) and the suspension is centrifuged (1000×g, 4° C., 10 min). The two supernatants are combined and centrifuged (15 000×g, 4° C., 30 min). The pellet obtained in this way is referred to as the P2 fraction.
The P2 pellet is washed with binding buffer (50 mM Tris-HCl, 1 mM MgCl2, 120 mM NaCl, 5 mM KCl, 2 mM CaCl2, pH 7.4), and centrifuged (15 000×g, 4° C., 30 min), twice.
The P2 membranes are resuspended in binding buffer and incubated in a volume of 250 μl (amount of membrane protein 0.1-0.5 mg) in the presence of 1-5 nM [^3H]-methyllycaconitine, 0.1% (w/v) BSA (bovine serum albumin) and various concentrations of the test substance at 21° C. for 2.5 h. Incubation is then carried out in the presence of 1 μM α-bungarotoxin or 100 μM nicotine or 10 μM MLA (methyllycaconitine) to determine the non-specific binding.
The incubation is stopped by adding 4 ml PBS (20 mM Na2HPO4, 5 mM KH2PO4, 150 mM NaCl, pH 7.4, 4° C.) and filtering through type A/E glass fibre filters (Gelman Sciences) which have previously been placed in 0.3% (v/v) polyethyleneimine (PEI) for 3 h. The filters are washed twice with 4 ml of PBS (4° C.), and the bound radioactivity is determined by scintillation measurement. All the assays are carried out in triplicate.

α7-nAChR, sequence (Q05941 23-502 limits assumed): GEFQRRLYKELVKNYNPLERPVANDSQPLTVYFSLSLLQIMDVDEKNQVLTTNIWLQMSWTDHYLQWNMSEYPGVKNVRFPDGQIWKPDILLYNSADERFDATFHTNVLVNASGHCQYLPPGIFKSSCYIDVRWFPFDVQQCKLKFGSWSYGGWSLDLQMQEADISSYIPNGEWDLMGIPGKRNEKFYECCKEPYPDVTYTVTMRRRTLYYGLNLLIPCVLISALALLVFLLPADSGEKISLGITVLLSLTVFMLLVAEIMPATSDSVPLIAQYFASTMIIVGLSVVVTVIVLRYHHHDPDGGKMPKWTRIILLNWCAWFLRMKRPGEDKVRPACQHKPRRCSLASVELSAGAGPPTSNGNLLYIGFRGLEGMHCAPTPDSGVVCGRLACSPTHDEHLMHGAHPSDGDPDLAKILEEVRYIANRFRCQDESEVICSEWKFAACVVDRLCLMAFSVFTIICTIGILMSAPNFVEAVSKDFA

SMILES	Ki
COc1cccc2cc(C(=O)N[C@H]3CN4CCC3CC4)oc12 [Example 19, N-[(3R)-1-Azabicyclo[2.2.2]oct-3-yl]-7-methoxy-1-benzofuran-2-carboxamide hydrochloride]	42 nM
Nc1ccc2cc(C(=O)N[C@H]3CN4CCC3CC4)oc2c1 [Example 35, N-[(3R)-1-Azabicyclo[2.2.2]oct-3-yl]-6-amino-1-benzofuran-2-carboxamide]	3.7 nM
O=C(N[C@H]1CN2CCC1CC2)c1cc2cccc([N+](=O)[O-])c2o1 [Example 36, N-[(3R)-1-Azabicyclo[2.2.2]oct-3-yl]-7-nitro-1-benzofuran-2-carboxamide]	63 nM
Nc1cccc2cc(C(=O)N[C@H]3CN4CCC3CC4)oc12 [Example 37, N-[(3R)-1-Azabicyclo[2.2.2]oct-3-yl]-7-amino-1-benzofuran-2-carboxamide]	80 nM
O=C(N[C@H]1CN2CCC1CC2)c1cc2cc(F)ccc2o1 [Example 42, N-[(3R)-1-Azabicyclo[2.2.2]oct-3-yl]-5-fluoro-1-benzofuran-2-carboxamide hydrochloride]	37 nM
O=C(N[C@H]1CN2CCC1CC2)c1cc2cccc(Br)c2o1 [Example 46, N-[(3R)-1-Azabicyclo[2.2.2]oct-3-yl]-7-bromo-1-benzofuran-2-carboxamide]	58 nM
O=C(N[C@H]1CN2CCC1CC2)c1cc2ccc3ccccc3c2o1 [Example 48, N-[(3R)-1-Azabicyclo[2.2.2]oct-3-yl]naphtho[1,2-b]furan-2-carboxamide hydrochloride]	75 nM
O=C(N[C@@H]1CN2CCC1CC2)c1cc2cccc(F)c2s1 [Example 59, N-[(3S)-1-Azabicyclo[2.2.2]oct-3-yl]-7-fluoro-1-benzothiophene-2-carboxamide hydrochloride]	20 nM
Nc1ccc2sc(C(=O)N[C@H]3CN4CCC3CC4)cc2c1 [Example 62, N-[(3R)-1-Azabicyclo[2.2.2]oct-3-yl]-5-amino-1-benzothiophene-2-carboxamide dihydrochloride]	50 nM
O=C(N[C@H]1CN2CCC1CC2)c1cc2cccc(C(F)(F)F)c2s1 [Example 64, N-[(3R)-1-Azabicyclo[2.2.2]oct-3-yl]-7-trifluoromethyl-1-benzothiophene-2-carboxamide hydrochloride]	20 nM
O=C(N[C@@H]1CN2CCC1CC2)c1cc2cccc(C(F)(F)F)c2s1 [Example 65, N-[(3S)-1-Azabicyclo[2.2.2]oct-3-yl]-7-trifluoromethyl-1-benzothiophene-2-carboxamide hydrochloride]	55 nM
Nc1cccc2cc(C(=O)N[C@H]3CN4CCC3CC4)sc12 [Example 68, N-[(3R)-1-Azabicyclo[2.2.2]oct-3-yl]-7-amino-1-benzothiophene-2-carboxamide dihydrochloride]	2 nM
Nc1ccc2cc(C(=O)N[C@H]3CN4CCC3CC4)sc2c1 [Example 73, 6-Amino-N-[(3R)-1-azabicyclo[2.2.2]oct-3-yl]-1-benzothiophene-2-carboxamide dihydrochloride]	2.8 nM
O=C(N[C@H]1CN2CCC1CC2)c1cc2cc(F)ccc2s1 [Example 74, N-[(3R)-1-Azabicyclo[2.2.2]oct-3-yl]-5-fluoro-1-benzothiophene-2-carboxamide hydrochloride]	22 nM
COc1cccc2cc(C(=O)N[C@H]3CN4CCC3CC4)sc12 [Example 76, N-[(3R)-1-Azabicyclo[2.2.2]oct-3-yl]-7-methoxy-1-benzothiophene-2-carboxamide hydrochloride]	6.7 nM
COc1cccc2cc(C(=O)N[C@@H]3CN4CCC3CC4)sc12 [Example 77, N-[(3S)-1-Azabicyclo[2.2.2]oct-3-yl]-7-methoxy-1-benzothiophene-2-carboxamide hydrochloride]	20 nM
O=C(N[C@H]1CN2CCC1CC2)c1cc2c(F)cccc2s1 [Example 78, N-[(3R)-1-Azabicyclo[2.2.2]oct-3-yl]-4-fluoro-1-benzothiophene-2-carboxamide hydrochloride]	80 nM
O=C(N[C@H]1CN2CCC1CC2)c1cc2cc(F)cc(F)c2s1 [Example 80, N-[(3R)-1-Azabicyclo[2.2.2]oct-3-yl]-5,7-difluoro-1-benzothiophene-2-carboxamide hydrochloride]	31 nM
CC(=O)Nc1ccc2cc(C(=O)N[C@H]3CN4CCC3CC4)sc2c1 [Example 88, 6-(Acetylamino)-N-[(3R)-1-azabicyclo[2.2.2]oct-3-yl]-1-benzothiophene-2-carboxamide hydrochloride]	28 nM
